According to patent publication US5508293A, “Pyridinecarboxyimidamide compounds and the use thereof” (Kirin Beer Kabushiki Kaisha, priority 1992, dated 1996):

Experiments:
[1] = system: spontaneously hypertensive rats (SHR), mean blood pressure; assay: Antihypertensive activities on spontaneously hypertensive rat (intravenously); assay type: in vivo, rat (male spontaneously hypertensive rats; conditions: iv, anesthetized male SHR, i.v., cumulative dosing, read-out: ED20 (the dose which lowered the blood pressure by 20%)
Procedure: Animals were anesthetized with urethane: α-chloralose.
A cannula was inserted into the carotid artery for measuring the mean blood pressure via a pressure transducer. A test compound was cumulatively administered through the cannula inserted into the femoral vein with an interval of 30 minutes. Variation of blood pressure was determined as the percentage change in the blood pressure before administration of the test compound, and the ED20 (the dose which lowered the blood pressure by 20%) was calculated from a dose-response curve.

male SD rats = assay: Acute toxicity, oral, Compound No. 6; assay type: in vivo, rat (male SD rats, 5 weeks old); conditions: 50 mg/kg, male SD rats
Procedure: (§1) Acute toxicity of 5-amino-N-cyano-N'-[2-(2-chlorophenyl)ethyl]-3-pyridinecarboximidamide (Compound No. 6) of the present invention on oral administration was examined with male SD rats (5 weeks old). As a result, no rats died at the dose of 50 mg/kg. LD50 was in the range over 50 mg/kg.

[2] = Acute toxicity, oral, Compound No. 6; assay type: in vivo, rat (male SD rats, 5 weeks old); conditions: rat, in vivo, male SD rats (5 weeks old)
Procedure: as §1

beagles, blood pressure = assay: Antihypertensive activity on anesthetized beagles (intravenously); assay type: in vivo, dog (beagles)
Procedure: Antihypertensive activities of 5-amino-N-cyano-N'-[2-(2-chlorophenyl)ethyl]-3-pyridinecarboximidamide (N-cyano-N'-[2-(2-chlorophenyl)ethyl]-5-(3aminopyridine)carboximidamide; Compound No. 6) according to the present invention was assessed by comparison with those of N-cyano-N'-[2-(2-chlorophenyl)ethyl]-3-pyridinecarboximidamide which is thought to be a wellknown compound most similar to the compound of the present invention (see Japanese Patent Laid-Open Publication No. 163061/1991).
Experiments were carried out with beagles (body weight, 9.2-10.4 kg) under anesthetization by intravenous administering 30 mg/kg of pentobarbital sodium. A cannula was inserted into the right femoral artery for measuring blood pressure. […]

[3] = system: renal hypertensive beagles, blood pressure; assay: Antihypertensive activities on renal hypertensive beagles (oral); assay type: in vivo, dog (2-kidney-1-clipped renal hypertensive beagles)
Procedure: Beagles (body weight, 9.0-11.0 kg) were anesthetized with 30 mg/kg of pentobarbital sodium intravenously. The left renal artery was carefully exposed through a flank incision, and wound with two silk sutures and ligated together with a 18G needle (external diameter; 1.2 mm) at two positions with the distance of 5 mm. A polyethylene tube for the measurement of blood pressure (IMG, PE-100) was inserted into the femoral artery, and the other terminal of the tube was exteriorized at the back of the neck. The polyethylene tube was filled with physiological saline containing 500 U/ml of heparin and sealed with a steel wire plug except on the measurement of the blood pressure. Antibiotics (penicilline and streptomycin, manufactured by Meiji Seika) were administered intramuscularly for three days after operation to prevent infections.
After 5-amino-N-cyano-N'-[2-(2-chlorophenyl)ethyl]-3-pyridinecarboximidamide was put into a No. 3 gelatin capsule, a gap was filled with lactose (100 mesh). The capsule was administered orally, and blood pressure was measured for 24 hours after administering the drug. Measurement was carried out without anesthetization under suspension with sling sheet. Blood pressure was measured by connecting the tube for measuring blood pressure to a pressure transducer (TP-400T; manufactured by Nihon Kohden) and recorded on a polygraph.

SMILES: N#CNC(=NCCc1ccccc1Cl)c1cncc(N)c1 [Compound No. 6, 5-amino-N-cyano-N'-[2-(2-chlorophenyl)ethyl]-3-pyridinecarboximidamide]
- ED20 [1]: 4.6 µg/kg
- deaths (male SD rats): no rats died
- LD50 [2]: > 50000 µg/kg
- decrease in blood pressure (beagles, blood pressure; i.v., 3-30 μg/kg): Dose-dependent decrease in blood pressure was observed
- duration of the antihypertensive action (beagles, blood pressure; i.v., dose 3 μg/kg): 10 min
- Antihypertensive activity (%) (beagles, blood pressure; i.v., dose 3 μg/kg, 0 min after dosage): 0.0%
- Antihypertensive activity (%) (beagles, blood pressure; i.v., dose 3 μg/kg, 1 min after dosage): -3.9%
- Antihypertensive activity (%) (beagles, blood pressure; i.v., dose 3 μg/kg, 2 min after dosage): -12.8%
- Antihypertensive activity (%) (beagles, blood pressure; i.v., dose 3 μg/kg, 3 min after dosage): -10.3%
- Antihypertensive activity (%) (beagles, blood pressure; i.v., dose 3 μg/kg, 5 min after dosage): -6.4%
- Antihypertensive activity (%) (beagles, blood pressure; i.v., dose 3 μg/kg, 7.5 min after dosage): -3.9%
- Antihypertensive activity (%) (beagles, blood pressure; i.v., dose 3 μg/kg, 10 min after dosage): -3.9%
- duration of the antihypertensive action (beagles, blood pressure; i.v., dose 10 μg/kg): 45 min
- Antihypertensive activity (%) (beagles, blood pressure; i.v., dose 10 μg/kg, 0 min after dosage): 0.0%
- Antihypertensive activity (%) (beagles, blood pressure; i.v., dose 10 μg/kg, 1 min after dosage): -16.0%
- Antihypertensive activity (%) (beagles, blood pressure; i.v., dose 10 μg/kg, 2 min after dosage): -22.7%
- Antihypertensive activity (%) (beagles, blood pressure; i.v., dose 10 μg/kg, 3 min after dosage): -26.7%
- Antihypertensive activity (%) (beagles, blood pressure; i.v., dose 10 μg/kg, 5 min after dosage): -26.7%
- Antihypertensive activity (%) (beagles, blood pressure; i.v., dose 10 μg/kg, 7.5 min after dosage): -26.7%
- Antihypertensive activity (%) (beagles, blood pressure; i.v., dose 10 μg/kg, 10 min after dosage): -26.7%
- Antihypertensive activity (%) (beagles, blood pressure; i.v., dose 10 μg/kg, 15 min after dosage): -20.0%
- Antihypertensive activity (%) (beagles, blood pressure; i.v., dose 10 μg/kg, 20 min after dosage): -16.0%
- Antihypertensive activity (%) (beagles, blood pressure; i.v., dose 10 μg/kg, 30 min after dosage): -13.3%
- Antihypertensive activity (%) (beagles, blood pressure; i.v., dose 10 μg/kg, 45 min after dosage): -6.7%
- duration of the antihypertensive action (beagles, blood pressure; i.v., dose 30 μg/kg): 60 min
- Antihypertensive activity (%) (beagles, blood pressure; i.v., dose 30 μg/kg, 0 min after dosage): 0.0%
- Antihypertensive activity (%) (beagles, blood pressure; i.v., dose 30 μg/kg, 1 min after dosage): -29.3%
- Antihypertensive activity (%) (beagles, blood pressure; i.v., dose 30 μg/kg, 2 min after dosage): -40.0%
- Antihypertensive activity (%) (beagles, blood pressure; i.v., dose 30 μg/kg, 3 min after dosage): -42.7%
- Antihypertensive activity (%) (beagles, blood pressure; i.v., dose 30 μg/kg, 5 min after dosage): -46.7%
- Antihypertensive activity (%) (beagles, blood pressure; i.v., dose 30 μg/kg, 7.5 min after dosage): -44.0%
- Antihypertensive activity (%) (beagles, blood pressure; i.v., dose 30 μg/kg, 10 min after dosage): -42.7%
- Antihypertensive activity (%) (beagles, blood pressure; i.v., dose 30 μg/kg, 15 min after dosage): -40.0%
- Antihypertensive activity (%) (beagles, blood pressure; i.v., dose 30 μg/kg, 20 min after dosage): -36.0%
- Antihypertensive activity (%) (beagles, blood pressure; i.v., dose 30 μg/kg, 30 min after dosage): -33.3%
- Antihypertensive activity (%) (beagles, blood pressure; i.v., dose 30 μg/kg, 45 min after dosage): -24.0%
- Antihypertensive activity (%) (beagles, blood pressure; i.v., dose 30 μg/kg, 60 min after dosage): -16.0%
- antihypertensive activity determined with the passage of time (beagles, blood pressure; summary statement): extremely potent and sustainable
- Average blood pressure ([3]; 0.25 mg/kg p.o., 0 hour after administration): 122.4 ± 4.4 mmHg
- Average blood pressure ([3]; 0.25 mg/kg p.o., 1 hour after administration): 100.9 ± 7.4 mmHg
- Average blood pressure ([3]; 0.25 mg/kg p.o., 2 hour after administration): 85.7 ± 0.3 mmHg
- Average blood pressure ([3]; 0.25 mg/kg p.o., 4 hour after administration): 102.8 ± 3.9 mmHg
- Average blood pressure ([3]; 0.25 mg/kg p.o., 6 hour after administration): 110.1 ± 2.6 mmHg
- Average blood pressure ([3]; 0.25 mg/kg p.o., 8 hour after administration): 112.6 ± 3.4 mmHg
- Average blood pressure ([3]; 0.25 mg/kg p.o., 24 hour after administration): 118.8 ± 4.8 mmHg
- Average blood pressure ([3]; 0.50 mg/kg p.o., 0 hour after administration): 126.6 ± 0.5 mmHg
- Average blood pressure ([3]; 0.50 mg/kg p.o., 1 hour after administration): 68.1 ± 7.4 mmHg
- Average blood pressure ([3]; 0.50 mg/kg p.o., 2 hour after administration): 84.8 ± 6.1 mmHg
- Average blood pressure ([3]; 0.50 mg/kg p.o., 4 hour after administration): 99.7 ± 12.3 mmHg
- Average blood pressure ([3]; 0.50 mg/kg p.o., 6 hour after administration): 106.2 ± 9.5 mmHg
- Average blood pressure ([3]; 0.50 mg/kg p.o., 8 hour after administration): 114.4 ± 7.3 mmHg
- Average blood pressure ([3]; 0.50 mg/kg p.o., 24 hour after administration): 111.8 ± 3.9 mmHg
- decrease in blood pressure ([3]; oral, 0.25 and 0.5 mg/kg): successive decrease in blood pressure was observed
